According to patent US9216181B2 (Southwest Research Institute, priority 2011, dated 2015):
Where a name gives a salt, the structure may show the parent alone. Read-outs that look alike come from different tables or passages of the source.

Tests used:
BMP-2 [1] = test: Real time PCR of BMP-2 gene expression in human MSC (Cells-to-Ct); type: cell-based; details: BMP-2 mRNA, hMSC, 5-10 μM, 24 hours, vs untreated
Protocol: Early passage human mesenchymal stem cells (MSC) were thawed from one frozen cryo-vial and seeded into two T-75 tissue culture flasks and incubated at 37° C. for 48 hours in Alpha MEM with 10% FBS. After three days and one re-feeding, the cells were trypsinized and re-suspended in pre-warmed media at 5×10^4 cells/mL to provide 5,000 cells per well in a 96 well plate and incubated overnight at 37° C. in 5% CO2.
Each well was washed in cold PBS, lysed at room temperature for five minutes, and stop reagent added to each well to stop the lysis reaction. The final lysate was kept cold at 4° C. and used immediately as the RNA template for the reverse transcription cDNA synthesis following the TAQMAN GENE EXPRESSION CELLS TO CT KIT instructions.
The cDNA synthesis was prepared on a separate sterile 96-well PCR plate and performed on the Step One Plus Real Time PCR System instrument (Applied Biosystems) with the programming set at 37° C. for 60 minutes and an inactivation hold of 95° C. for five minutes. The final cDNA reaction was kept cold and used as the template for the TAQMAN GENE Real-Time PCR step following the recommended instructions for TAQMAN GENE EXPRESSION CELLS TO CT KIT assay. […] Template cDNA's were added separately to respective individual wells in replicate samples.
The PCR was performed on the STEPONEPLUS Real-Time System instrument (Applied Biosystems). The amplification program consisted of 1 cycle of 95° C. with 10 minute hold (hot start) and followed by 50 cycles of 95° C. with 15-second annealing hold and 1-minute 60° C. specified acquisition hold.

BMP2 = test: Quantitative PCR (TaqMan, ΔΔCt) of BMP2 in human mesenchymal stem cells; type: cell-based; details: for fold induction at 10 µM: Homo sapiens, Mesenchymal stem cells, read-out: q-PCR Fold increase
Protocol: (§1) Human mesenchymal stem cells (LONZA, Catalog PT2501) were maintained in Mesenchymal stem cells basal media (MSCBM CAT#PT-3238). Early passage cells were plated in triplicate at 2×10^4 cells/cm^2 using six well tissue culture plates and grown in humidified 5% CO2 at 37° C. for 24 hours. Spent media was replaced by assay media of drugs to be tested in same media as above at 10 μM final concentration. Untreated cells were used as the control group. Total RNA were prepared using either TRI Reagent (Ambion, Cat. 9738), for subsequent TaqMan gene expression qPCR of BMP2. RNA concentration and integrity was assessed by absorbance 260/280 and electrophoresis in 1% Agarose with formaldehyde loading dye. For TaqMan gene expression, cDNA was synthesized from 2 μg of total RNA using the High Capacity cDNA Reverse Transcription Kit (Applied Biosystems, Cat. 4368814). The resulting cDNA were diluted 1:100 for TaqMan and amplified by real-time quantitative PCR. Gene-specific fluorescent labeled TaqMan primers for FAM-BMP2 (Applied Biosystems, Hs00154192.m1) and TaqMan reference VIC-18S ribosomal RNA (Applied Biosystems, 4310893E) were used to target gene of interest. A cocktail of universal master mix (Applied Biosystems, 4369016) were prepared individually for both set of primers which contained Taq Polymerase, dNTPs, and buffer. Template cDNA's were added separately to respective individual wells in triplicate samples. The PCR were performed on StepOne Plus Real Time System instrument (Applied Biosystems). The amplification program consisted of 1 cycle of 95° C. with 10 minute hold (hot start) followed by 50 cycles of 95° C. with 15 second annealing hold and 1 minute 60° C. specified acquisition hold. The Ct value of endogenous reference gene (i.e. 18 s) was used to control for input RNA and then used to normalize target gene (i.e. BMP2) tested from the same cDNA sample to calculate the Δ Ct, and then calibrated to an internal reference sample. Change in gene expression was determined by the expression ΔΔCt relative method.
18 compounds were confirmed positive by the more stringent qPCR techniques. […] Included in the tables is the target or common medical use for each compounds.

BMP-2 [2] = test: BMP-2 fold change of JHU library compounds, confirmed by qPCR; type: cell-based, human; details: JHU library compounds; non-treated = 1.00
Description: To further verify the technique, a 2T3 mouse pre-osteoblast cell line derived from calvaria courtesy of Dr. Steve Harris, UTHSCSA, was utilized to visually screen the compounds of the BIOMOL library and JHU libraries, purchased from John Hopkins University including 2387 compounds (solution in wells). Specifically, Murine 2T3 were thawed from one frozen cryovial and re-seeded into two T-75 tissue culture flasks grown in Alpha MEM with 10% FBS, Glutamine, and Pen/Strip antibiotics. Cells were incubated in a humidified 37° C. under 5% CO2 for 48 hours or when cells reached 80% confluence. After reaching confluency, the 2T3 were trypsinized and resuspended in pre-warm growth media to a cell density of 5×10^4 cells/mL. Approximately 100 uL of cell suspension was seeded to a 96 well plate to give a final 5,000 cells per well. Plate was incubated overnight at 37° C. and spent media was aspirated and replace with 100 uL of growth media with 5-10 uM of presumptive drug compounds. A set of controls were untreated and treated with 10 uM of Lovastatin to be used as a visual reference morphological screening.
as §1, with “Total RNA were prepared using either TRI Reagent (Ambion, Cat. 9738), for subsequent TaqMan gene expression qPCR of BMP2.” left out, “Gene-specific fluorescent labeled TaqMan primers for FAM-BMP2 (Applied Biosystems, Hs00154192.m1) and TaqMan reference VIC-18S ribosomal RNA (Applied Biosystems, 4310893E) were used to target gene of interest.” left out, “The Ct value of endogenous reference gene (i.e. 18 s) was used to control for input RNA and then used to normalize target gene (i.e. BMP2) tested from the same cDNA sample to calculate the Δ Ct, and then calibrated to an internal reference sample.” left out
Included in the tables is the target or common medical use for each compounds.

[3] = test system: human mesenchymal stem cells (MSC); type: cell-based; set-up: key: *: Dose caused cell death; details: hMSC, 24 hrs
[4] = BMP2 mRNA, hMSC, 10 μM, vs untreated, 18S reference, BIOMOL library (Table 2)
[5] = positive control compounds (Table 1)
[6] = BMP2 mRNA, hMSC, 10 μM, vs untreated, 18S reference, positive control compounds (Table 1)

Compound	RT PCR Fold increase (BMP-2 [1]; BIOMOL library (Table 2)) [fold]	fold induction at 10 µM (BMP2; [4])	RT PCR Fold increase (BMP-2 [1]; [5]) [fold]	further results
N=C(N)N1CCc2ccccc2C1 [Debrisoquin sulfate]	8.2	6.2		
CC(=O)O[C@@]12CO[C@@H]1C[C@H](O)[C@@]1(C)C(=O)[C@H](O)C3=C(C)[C@@H](OC(=O)[C@H](O)[C@@H](NC(=O)OC(C)(C)C)c4ccccc4)C[C@@](O)([C@@H](OC(=O)c4ccccc4)[C@H]21)C3(C)C [Docetaxil]			11.0	q-PCR Fold increase (BMP2; [6]): 2.7 fold
COC(=O)Nc1nc2ccc(Sc3ccccc3)cc2[nH]1 [Fenbendazole]	6.6	2		
COC(=O)Nc1nc2cc(C(=O)c3ccc(F)cc3)ccc2[nH]1 [Flubendazole]	5.6	1.7		Fold change (BMP-2) (BMP-2 [2]): 10.00 fold
CC(C)C(=O)Nc1ccc([N+](=O)[O-])c(C(F)(F)F)c1 [Flutamide]	9.7	1.6		
CC(C)n1c(/C=C/C(O)CC(O)CC(=O)[O-])c(-c2ccc(F)cc2)c2ccccc21.[Na+] (centres unmarked) [Fluvastatin Na]			3.2	q-PCR Fold increase (BMP2; [6]): 7.8 fold
COC(=O)c1ccc(O)c2nc3c(C=O)c(O)cc(O)c3nc12 [Lomofungin]	32.6	14.2		Fold change (BMP-2) (BMP-2 [2]): 26.00 fold
CNCCCC12CCC(c3ccccc31)c1ccccc12 [Maprotiline]	3.6	2.4		
CC[C@H](C)C(=O)O[C@H]1CCC=C2C=C[C@H](C)[C@H](CC[C@@H]3C[C@@H](O)CC(=O)O3)[C@H]21 [Mevastatin]			3.1	fold induction at 10 µM (BMP2; [6]): 0.9
CCCCN1C[C@H](O)[C@@H](O)[C@H](O)[C@H]1CO [Miglustat]	4.9	6.6		
CCCOc1ccc2nc(NC(=O)OC)[nH]c2c1 [Oxibendazole]	4.5	1.4		Fold change (BMP-2) (BMP-2 [2]): 18.00 fold
COc1cc2nc(N3CCN(C(=O)c4ccco4)CC3)nc(N)c2cc1OC [Prazosin]	6.8	4		
COc1ccc(C[C@H](N)C(=O)N[C@H]2[C@@H](O)[C@H](n3cnc4c(N(C)C)ncnc43)O[C@@H]2CO)cc1 [Puromycin]	122.3	54.6		
CCN(CC)CCCC(C)Nc1c2ccc(Cl)cc2nc2ccc(OC)cc12 (centres unmarked) [Quinacrine]	52.9	95		Fold change (BMP-2) (BMP-2 [2]): 722.00 fold; cell death ([3]; 5 uM): *Quinacrine; cell death ([3]; 10 uM): *Quinacrine
CC(C)=CC[C@@H](O)C1=CC(=O)c2c(O)ccc(O)c2C1=O [Shikonin]			23.5	fold induction at 10 µM (BMP2): 1.5
CCC(C)(C)C(=O)O[C@H]1C[C@@H](C)C=C2C=C[C@H](C)[C@H](CC[C@@H]3C[C@@H](O)CC(=O)O3)[C@H]21 [Simvastatin]			4.2	fold induction at 10 µM (BMP2): 2.3
CC(=O)O[C@H]1C(=O)[C@@]2(C)[C@H]([C@H](OC(=O)c3ccccc3)[C@]3(O)C[C@H](OC(=O)[C@H](O)[C@@H](NC(=O)c4ccccc4)c4ccccc4)C(C)=C1C3(C)C)[C@]1(OC(C)=O)CO[C@@H]1C[C@@H]2O [Taxol]			3.7	fold induction at 10 µM (BMP2; [6]): 4
CC(C)(C)c1ccc(C(O)CCCN2CCC(C(O)(c3ccccc3)c3ccccc3)CC2)cc1 (centres unmarked) [Terfenadine]	13.9	10.4		
CC[C@]1(O)C[C@@H]2CN(CCc3c([nH]c4ccccc34)[C@@](C(=O)OC)(c3cc4c(cc3OC)N(C)[C@H]3[C@@](O)(C(=O)OC)[C@H](OC(C)=O)[C@]5(CC)C=CCN6CC[C@]43[C@@H]65)C2)C1 [Vinblastine sulfate]			9.5	fold induction at 10 µM (BMP2; [6]): 1.7; Fold change (BMP-2) (BMP-2 [2]): 64.00 fold
CC[C@]1(O)C[C@H]2CN(CCc3c([nH]c4ccccc34)[C@@](C(=O)OC)(c3cc4c(cc3OC)N(C=O)[C@H]3[C@@](O)(C(=O)OC)[C@H](OC(C)=O)[C@]5(CC)C=CCN6CC[C@]43[C@@H]65)C2)C1 [Vincristine sulfate]			10.8	fold induction at 10 µM (BMP2; [6]): 1.8; Fold change (BMP-2) (BMP-2 [2]): 57.00 fold
CC[C@]1(O)C[C@@H]2CN(CCc3c([nH]c4ccccc34)[C@@](C(=O)OC)(c3cc4c(cc3OC)N(C)[C@H]3[C@@](O)(C(N)=O)[C@H](O)[C@]5(CC)C=CCN6CC[C@]43[C@@H]65)C2)C1 [Vindesine]			12.4	fold induction at 10 µM (BMP2; [6]): 1.8
